Test results taken from article PMC5029629, “β-casein nanovehicles for oral delivery of chemotherapeutic drug combinations overcoming P-glycoprotein-mediated multidrug resistance in human gastric cancer cells” (Oncotarget, 2016).

Target: T1, β-casein (β-CN) (Bos taurus, UniProt P02666)
T1 construct: gene CSN2
T1 sequence (P02666 16-224): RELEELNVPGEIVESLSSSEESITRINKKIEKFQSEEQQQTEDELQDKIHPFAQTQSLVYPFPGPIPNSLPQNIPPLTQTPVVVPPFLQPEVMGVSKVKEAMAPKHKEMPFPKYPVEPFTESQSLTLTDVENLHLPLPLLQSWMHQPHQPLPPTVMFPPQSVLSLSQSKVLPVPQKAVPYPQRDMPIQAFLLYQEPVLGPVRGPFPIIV
Assay: Trp143 fluorescence quenching, modified Stern-Volmer fit (combined static and dynamic)
Format: binding
Conditions: PBS pH 7.0, 0.1 M ionic strength, 2.5% DMSO, 23 °C, 1 mg/ml protein (micelles); KSV called association constant but also defined as Stern-Volmer overall quenching constant; ligand poorly soluble
Description: Trp143 fluorescence quenching, modified Stern-Volmer fit (combined static and dynamic) on β-casein (β-CN)

KSV ± SE (10^4 M^-1) | Compound
0.96 ± 0.07 10^4 M^-1 | CC(=O)O[C@H]1C(=O)[C@@]2(C)[C@H]([C@H](OC(=O)c3ccccc3)[C@]3(O)C[C@H](OC(=O)[C@H](O)[C@@H](NC(=O)c4ccccc4)c4ccccc4)C(C)=C1C3(C)C)[C@]1(OC(C)=O)CO[C@@H]1C[C@@H]2O [Paclitaxel]
1.80 ± 0.16 10^4 M^-1 | COc1cc2c(cc1OC)CN(CCc1ccc(NC(=O)c3cc(OC)c(OC)cc3NC(=O)c3cnc4ccccc4c3)cc1)CC2 [Tariquidar]
